Patent publication US6841519B1, “Isoxazoline derivatives and herbicides containing the same as the active ingredient” (Kumiai Chemical Industry Co., Ltd., priority 1999, dated 2005)

How the values were obtained:
Type in all cases: in vivo
[1] = system: Echinochloa oryzicola Vasing. (Eo); assay: Test for herbicidal effect by paddy field soil treatment (Test Example 1); conditions: application amount (active ingredient) 100 g/10 a, examined at the 21st day from the treatment, index per Table 40
In short: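 Scored on a standard scale at day 21 in the greenhouse: herbicidal effect of wettable powder applied to flooded water (3 cm depth) at 100 g a.i./10 ares, one day after sowing Eo into puddled paddy soil.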

[2] = system: Setaria viridis (L.) Beauv. (Se); assay: Test for herbicidal effect by upland field soil treatment (Test Example 2), Se
In short: (§1)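 Pre-emergence soil treatment: wettable powder diluted in water and sprayed on soil just sown with Ec and Se seeds, delivering 100 g active ingredient per 10 ares in 100 liters per 10 ares. Herbicidal effect was rated against a fixed scale 21 days later, after greenhouse growth.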

[3] = system: Echinochloa crus-galli (L.) Beauv. var. crusgall (Ec); assay: Test for herbicidal effect by upland field soil treatment (Test Example 2), Ec
In short: as §1

[4] = system: Echinochloa crus-galli (L.) Beauv. var. crusgalli (Ec); assay: Test for herbicidal effect by upland foliage treatment (Test Example 3); conditions: 100 g/10 a active ingredient, examined at 14th day
In short: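 Scored 14 days post-spray against a graded standard: greenhouse-grown Ec, 2 weeks old in upland soil, received whole-foliage application of diluted wettable powder (100 g active ingredient per 10 ares, spray volume 100 L per 10 ares).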

[5] = 100 g/10 a active ingredient, examined at 21st day
[6] = application amount (active ingredient) 100 g/10 a, examined at the 21st day from the treatment, index per Table 40

Row | SMILES | Herbicidal effect to Eo [1] | Herbicidal effect to Se [2, 5] | Herbicidal effect to Ec [3, 5] | Herbicidal effect to Ec [4] | Herbicidal effect to Se [2, 6] | Herbicidal effect to Ec [3, 6]
1 | CC1(C)CC(S(=O)(=O)Cc2cc(C(F)(F)F)ccc2F)=NO1 [Compound 1-514] | 5 (A herbicidal effect or phytotoxicity of 90% or more) | 5 (A herbicidal effect or phytotoxicity of 90% or more) | 5 (A herbicidal effect or phytotoxicity of 90% or more) | 5 (A herbicidal effect or phytotoxicity of 90% or more) | – | –
2 | CC1(C)CC(S(=O)(=O)Cc2c(F)cccc2C(F)(F)F)=NO1 [Compound 1-527] | 5 (A herbicidal effect or phytotoxicity of 90% or more) | 5 (A herbicidal effect or phytotoxicity of 90% or more) | 5 (A herbicidal effect or phytotoxicity of 90% or more) | 5 (A herbicidal effect or phytotoxicity of 90% or more) | – | –
3 | CC1(C)CC(S(=O)(=O)Cc2cccc(C(F)(F)F)c2F)=NO1 [Compound 1-515] | 5 (A herbicidal effect or phytotoxicity of 90% or more) | 5 (A herbicidal effect or phytotoxicity of 90% or more) | 5 (A herbicidal effect or phytotoxicity of 90% or more) | 5 (A herbicidal effect or phytotoxicity of 90% or more) | – | –
4 | CC(C)Oc1cccc(Cl)c1CS(=O)(=O)C1=NOC(C)(C)C1 [Compound 1-566] | 5 (A herbicidal effect or phytotoxicity of 90% or more) | 5 (A herbicidal effect or phytotoxicity of 90% or more) | 5 (A herbicidal effect or phytotoxicity of 90% or more) | 4 (A herbicidal effect or phytotoxicity of 70% to less than 90%) | – | –
5 | COc1ccccc1CS(=O)(=O)C1=NOC(C)(C)C1 [Compound 1-40] | 5 (A herbicidal effect or phytotoxicity of 90% or more) | – | – | 5 (A herbicidal effect or phytotoxicity of 90% or more) | 5 (A herbicidal effect or phytotoxicity of 90% or more) | 5 (A herbicidal effect or phytotoxicity of 90% or more)
6 | CCOc1cccc(C)c1CS(=O)(=O)C1=NOC(C)(C)C1 [Compound 1-602] | 5 (A herbicidal effect or phytotoxicity of 90% or more) | 5 (A herbicidal effect or phytotoxicity of 90% or more) | 5 (A herbicidal effect or phytotoxicity of 90% or more) | 4 (A herbicidal effect or phytotoxicity of 70% to less than 90%) | – | –
7 | CC1(C2CC2)CC(S(=O)(=O)Cc2c(F)cccc2F)=NO1 (centres unmarked) [Compound 1-378] | 5 (A herbicidal effect or phytotoxicity of 90% or more) | – | – | 5 (A herbicidal effect or phytotoxicity of 90% or more) | 5 (A herbicidal effect or phytotoxicity of 90% or more) | 5 (A herbicidal effect or phytotoxicity of 90% or more)
8 | CCOc1cccc(Cl)c1CS(=O)(=O)C1=NOC(C)(C)C1 [Compound 1-564] | 5 (A herbicidal effect or phytotoxicity of 90% or more) | 5 (A herbicidal effect or phytotoxicity of 90% or more) | 5 (A herbicidal effect or phytotoxicity of 90% or more) | 4 (A herbicidal effect or phytotoxicity of 70% to less than 90%) | – | –
9 | Cc1cccc(Cl)c1CS(=O)(=O)C1=NOC(C)(C)C1 [Compound 1-560] | 5 (A herbicidal effect or phytotoxicity of 90% or more) | 5 (A herbicidal effect or phytotoxicity of 90% or more) | 5 (A herbicidal effect or phytotoxicity of 90% or more) | 4 (A herbicidal effect or phytotoxicity of 70% to less than 90%) | – | –
10 | Cc1ccc(CS(=O)(=O)C2=NOC(C)(C)C2)cc1C [Compound 1-513] | 5 (A herbicidal effect or phytotoxicity of 90% or more) | 5 (A herbicidal effect or phytotoxicity of 90% or more) | 5 (A herbicidal effect or phytotoxicity of 90% or more) | 5 (A herbicidal effect or phytotoxicity of 90% or more) | – | –
11 | CC1(C)CC(S(=O)(=O)Cc2cc(F)c(F)cc2F)=NO1 [Compound 1-510] | 5 (A herbicidal effect or phytotoxicity of 90% or more) | 5 (A herbicidal effect or phytotoxicity of 90% or more) | 5 (A herbicidal effect or phytotoxicity of 90% or more) | 4 (A herbicidal effect or phytotoxicity of 70% to less than 90%) | – | –
12 | CC1(C)CC(S(=O)(=O)Cc2ccccc2S(=O)(=O)C(F)(F)F)=NO1 [Compound 1-517] | 5 (A herbicidal effect or phytotoxicity of 90% or more) | 5 (A herbicidal effect or phytotoxicity of 90% or more) | 5 (A herbicidal effect or phytotoxicity of 90% or more) | 5 (A herbicidal effect or phytotoxicity of 90% or more) | – | –
13 | CC1(C)CC(S(=O)(=O)Cc2ccccc2C#N)=NO1 [Compound 1-139] | 5 (A herbicidal effect or phytotoxicity of 90% or more) | – | – | 4 (A herbicidal effect or phytotoxicity of 70% to less than 90%) | 5 (A herbicidal effect or phytotoxicity of 90% or more) | 5 (A herbicidal effect or phytotoxicity of 90% or more)
14 | CC1(C)CC(S(=O)(=O)Cc2cc(Cl)cc(Cl)c2)=NO1 [Compound 1-492] | 5 (A herbicidal effect or phytotoxicity of 90% or more) | – | – | 4 (A herbicidal effect or phytotoxicity of 70% to less than 90%) | 5 (A herbicidal effect or phytotoxicity of 90% or more) | 5 (A herbicidal effect or phytotoxicity of 90% or more)
15 | CCOc1cccc(C(F)(F)F)c1CS(=O)(=O)C1=NOC(C)(C)C1 [Compound 1-585] | 5 (A herbicidal effect or phytotoxicity of 90% or more) | 5 (A herbicidal effect or phytotoxicity of 90% or more) | 5 (A herbicidal effect or phytotoxicity of 90% or more) | 5 (A herbicidal effect or phytotoxicity of 90% or more) | – | –
16 | CC1(C)CC(S(=O)(=O)Cc2ccccc2F)=NO1 [Compound 1-32] | 5 (A herbicidal effect or phytotoxicity of 90% or more) | – | – | 5 (A herbicidal effect or phytotoxicity of 90% or more) | 5 (A herbicidal effect or phytotoxicity of 90% or more) | 5 (A herbicidal effect or phytotoxicity of 90% or more)
17 | CC1(C)CC(S(=O)(=O)Cc2ccc(Cl)cc2[N+](=O)[O-])=NO1 [Compound 1-539] | 5 (A herbicidal effect or phytotoxicity of 90% or more) | 5 (A herbicidal effect or phytotoxicity of 90% or more) | 5 (A herbicidal effect or phytotoxicity of 90% or more) | 5 (A herbicidal effect or phytotoxicity of 90% or more) | – | –
18 | CC1(C)CC(S(=O)(=O)Cc2ccc(F)cc2Cl)=NO1 [Compound 1-538] | 5 (A herbicidal effect or phytotoxicity of 90% or more) | 5 (A herbicidal effect or phytotoxicity of 90% or more) | 5 (A herbicidal effect or phytotoxicity of 90% or more) | 5 (A herbicidal effect or phytotoxicity of 90% or more) | – | –
19 | CC(C)Oc1cccc(F)c1CS(=O)(=O)C1=NOC(C)(C)C1 [Compound 1-570] | 5 (A herbicidal effect or phytotoxicity of 90% or more) | 5 (A herbicidal effect or phytotoxicity of 90% or more) | 5 (A herbicidal effect or phytotoxicity of 90% or more) | 5 (A herbicidal effect or phytotoxicity of 90% or more) | – | –
20 | CCC1(C)CC(S(=O)(=O)Cc2cccc(C)c2)=NO1 (centres unmarked) [Compound 1-202] | 5 (A herbicidal effect or phytotoxicity of 90% or more) | – | – | 4 (A herbicidal effect or phytotoxicity of 70% to less than 90%) | 4 (A herbicidal effect or phytotoxicity of 70% to less than 90%) | 5 (A herbicidal effect or phytotoxicity of 90% or more)
21 | CCC1(CC)CC([S+]([O-])Cc2c(F)cccc2F)=NO1 (centres unmarked) [Compound 1-363] | 5 (A herbicidal effect or phytotoxicity of 90% or more) | – | – | 4 (A herbicidal effect or phytotoxicity of 70% to less than 90%) | 4 (A herbicidal effect or phytotoxicity of 70% to less than 90%) | 5 (A herbicidal effect or phytotoxicity of 90% or more)
22 | CC1(C)CC(S(=O)(=O)Cc2c(F)c(F)c(F)c(F)c2F)=NO1 [Compound 1-531] | 5 (A herbicidal effect or phytotoxicity of 90% or more) | 5 (A herbicidal effect or phytotoxicity of 90% or more) | 5 (A herbicidal effect or phytotoxicity of 90% or more) | 5 (A herbicidal effect or phytotoxicity of 90% or more) | – | –
23 | CC1ON=C(S(=O)(=O)Cc2c(F)cccc2F)C1C (centres unmarked) [Compound 1-496] | 5 (A herbicidal effect or phytotoxicity of 90% or more) | – | – | 5 (A herbicidal effect or phytotoxicity of 90% or more) | 4 (A herbicidal effect or phytotoxicity of 70% to less than 90%) | 5 (A herbicidal effect or phytotoxicity of 90% or more)
